The source of these data is ChEMBL document CHEMBL5532645, “Discovery of proteolysis-targeting chimera targeting undruggable proteins using a covalent ligand screening approach” (Eur J Med Chem, 2024).

Activity calls are given as the source filed them. The rule behind the calls is not given here.

Data set [1] concerns the target T1, Protein cereblon/E3 ubiquitin-protein ligase Mdm2 (Homo sapiens) (UniProt Q00987+Q96SW2). In words: PROTAC activity at CRBN/MDM2 in human HEK293 cells assessed as increase in MDM2 expression at 30 uM measured after 6 hrs by Western blot analysis. It is filed as cell-based. Background: Immunoblotting shows a protein as a band on a membrane.
The target in data set [2] is T1, Protein cereblon/E3 ubiquitin-protein ligase Mdm2 (Homo sapiens). In words: PROTAC activity at CRBN/MDM2 in human HEK293 cells assessed as induction of MDM2 degradation at 30 uM measured after 24 hrs by Western blot analysis. Type of data set: cell-based.
Data set [3] has the same target. In words: PROTAC activity at CRBN/MDM2 in human HEK293 cells at 30 uM measured after 24 hrs Western blot analysis relative to control. Type of data set: cell-based.
Data set [4] has the same target. Put plainly: PROTAC activity at CRBN/MDM2 in human HEK293 cells assessed as induction of MDM2 degradation at 30 uM measured after 2 hrs by Western blot analysis. It is filed as cell-based.
In the next data set the test system is HEK293. Put plainly: Cytotoxicity against HEK293 cells assessed as cell viability at 0.3 uM incubated for 24 hrs by cell counting kit 8 method. It is filed as toxicity, cell-based. The following applies: human, hek293, 24 h. (Formazan colour is commonly taken as a measure of viable cells.)
Data set [5] has as its target T1, Protein cereblon/E3 ubiquitin-protein ligase Mdm2 (Homo sapiens). Put plainly: PROTAC activity at CRBN/MDM2 in human HEK293 cells assessed as induction of MDM2 degradation at 30 uM by Western blot analysis. Type of data set: cell-based. The following applies: time 2-24 hrs, TDE = time-dependent effect.
The target is the same in data set [6]. In words: PROTAC activity at CRBN/MDM2 in human HEK293 cells assessed as maximum degradation at 10 uM measured after 24 to 48 hrs by Western blot analysis. Conditions: time 24-48 hrs. Type of data set: cell-based.
The target is the same in data set [7]. In words: PROTAC activity at CRBN/MDM2 in human HEK293 cells assessed as induction of MDM2 degradation measured after 24 hrs by Western blot analysis. Type of data set: cell-based. The following applies: dose 3-30 µM.
The target is the same in data set [8]. In words: PROTAC activity at CRBN/MDM2 in human HEK293 cells at 3 to 10 uM preincubated with MG132 for 4 hrs followed by compound addition and measured after 20 hrs by Western blot analysis. It is filed as cell-based. The following applies: dose 3-10 µM.
For data set [9] the target is unchanged. In words: PROTAC activity at CRBN/MDM2 in human HEK293 cells at 3 to 10 uM preincubated with MLN4924 for 4 hrs followed by compound addition and measured after 20 hrs by Western blot analysis. It is filed as cell-based. Conditions: dose 3-10 µM.
Data set [10] shares this target. In words: PROTAC activity at CRBN/MDM2 in human HEK293 cells assessed as induction of MDM2 degradation at 3 to 10 uM. It is filed as cell-based. Conditions: dose 3-10 µM.

T1 sequence (Q00987 whole entry, looked up): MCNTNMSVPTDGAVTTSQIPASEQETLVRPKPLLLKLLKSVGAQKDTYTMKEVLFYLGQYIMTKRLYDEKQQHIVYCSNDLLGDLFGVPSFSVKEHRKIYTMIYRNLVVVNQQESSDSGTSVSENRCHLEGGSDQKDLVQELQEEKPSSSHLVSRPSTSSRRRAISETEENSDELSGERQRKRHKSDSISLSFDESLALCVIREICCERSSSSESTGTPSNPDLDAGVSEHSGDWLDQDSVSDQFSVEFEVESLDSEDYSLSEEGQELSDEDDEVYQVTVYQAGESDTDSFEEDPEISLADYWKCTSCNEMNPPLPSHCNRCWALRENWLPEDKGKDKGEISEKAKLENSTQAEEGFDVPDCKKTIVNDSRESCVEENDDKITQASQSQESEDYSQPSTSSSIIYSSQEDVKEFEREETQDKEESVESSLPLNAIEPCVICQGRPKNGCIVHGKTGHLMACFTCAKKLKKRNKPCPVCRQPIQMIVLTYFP
T1 sequence (Q96SW2 whole entry, looked up): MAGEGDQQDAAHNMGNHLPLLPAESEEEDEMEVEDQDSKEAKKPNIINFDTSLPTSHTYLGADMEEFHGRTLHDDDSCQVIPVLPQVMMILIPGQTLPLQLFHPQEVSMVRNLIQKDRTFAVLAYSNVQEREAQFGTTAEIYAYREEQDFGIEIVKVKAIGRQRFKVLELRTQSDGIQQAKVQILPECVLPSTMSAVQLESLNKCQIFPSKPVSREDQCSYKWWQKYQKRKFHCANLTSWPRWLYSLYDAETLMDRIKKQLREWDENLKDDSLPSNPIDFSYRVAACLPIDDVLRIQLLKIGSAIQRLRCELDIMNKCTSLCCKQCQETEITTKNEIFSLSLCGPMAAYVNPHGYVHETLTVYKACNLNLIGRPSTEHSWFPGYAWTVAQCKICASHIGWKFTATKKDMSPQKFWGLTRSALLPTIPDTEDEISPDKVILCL

The term Emax denotes the maximal effect, on the per cent scale that the assay sets. In the case of `O=C1CCC(N2C(=O)c3ccc(NCCOCCOCCC(=O)N4CCN(c5nccc(C(F)(F)F)n5)CC4)cc3C2=O)C(=O)N1` (stereo not given), the result in [1] and in [4] was Active. Moreover, in data set [2], the result was inactive. Further, the Emax in data set [3] came out at 31.5%.
On to `O=C1CCC(N2C(=O)c3cccc(NCCOCCOCCC(=O)N4CCOC(c5cccc(OC(F)F)c5)C4)c3C2=O)C(=O)N1` (stereo not given), for which, in data set [1], the result was Active. In addition, the Emax in data set [3] was 28.3%.
Take `NS(=O)(=O)OC[C@@H]1C[C@@H](n2ccc3c(N[C@H]4CCc5ccccc54)ncnc32)C[C@@H]1O` [PEVONEDISTAT]: the Activity result in the data set on HEK293 is given as “Non-Toxic”.
With `CN(C(=O)CCOCCOCCOCCOCCNc1cccc2c1C(=O)N(C1CCC(=O)NC1=O)C2=O)C(c1ccc(F)cc1)c1cccnc1` (stereo not given), the maximum response (Emax) in data set [3] amounted to 5.5%.
`CN(C(=O)CCOCCOCCOCCNc1cccc2c1C(=O)N(C1CCC(=O)NC1=O)C2=O)C(c1ccc(F)cc1)c1cccnc1` (stereo not given): the Emax in data set [3] is 5.6%.
For the compound `CN(C(=O)CCOCCOCCNc1cccc2c1C(=O)N(C1CCC(=O)NC1=O)C2=O)C(c1ccc(F)cc1)c1cccnc1` (stereo not given), the Emax in data set [3] stood at 26.5%.
Consider `CN(C(=O)CCOCCNc1cccc2c1C(=O)N(C1CCC(=O)NC1=O)C2=O)C(c1ccc(F)cc1)c1cccnc1` (stereo not given), for which the Activity entry in data set [5] is “Tde”; in data set [7], “Dose-Dependent Effect”. Besides, the result in data set [6] and in data set [10] was Active. For the same compound, the outcome in data set [8] and in data set [9] was inactive. In data set [3], this compound came in with an Emax of 31.2%.
Turning to `O=C1CCC(N2C(=O)c3ccc(NCCOCCC(=O)N4CCOC(c5cccc(OC(F)F)c5)C4)cc3C2=O)C(=O)N1` (stereo not given), the Emax in data set [3] was found to be 23.2%.
Turning to `CN1C(=O)CCC(N2C(=O)c3cccc(NCCOCCC(=O)N(C)C(c4ccc(F)cc4)c4cccnc4)c3C2=O)C1=O` (stereo not given), the Emax entry in data set [3] is “inactive”. Moreover, the result in data set [10] was inactive.
